According to US20070037193A1, “Modulation of peroxisome proliferator-activated receptors” (priority 2005, published 2007):
Values belong to the compound of their own block, whether it stands above or below them.

Assays:
PGR3/ZADH2 = experiment: Substrate specificity of PGR3/ZADH2; format: biochemical; conditions: 15-keto PGE2 replaced with the test substrate
Experimental: (§1) Enzymatic activity was determined as follows. 10 μg of the recombinant mouse or human PGR3/ZADH2 protein was incubated at 37° C. in a reaction buffer containing 0.1IM Tris-HCl (pH7.4), 0.5 mM NADPH, and 0.57 mM 15-keto PGE2. The reaction was conducted at 37° C. in the dark for 10 minutes and terminated by adding 700 μl of a buffer which contained 50 mM potassium hydrogen phthalate, pH 3.0, and 1% Tween 20. 200 μl of a color development reagent, which contained 790 μM indonitrotetrazolium chloride, 60 μM phenazene methosulfate, and 1% Tween 20, was added to oxidize any unreacted NADPH. Absorbance at 490 nm was measured by an ELISA plate reader. A standard curve was generated using reaction buffers containing serially diluted amounts of NADPH.
Substrate specificity of PGR3/ZADH2 was determined using the just-described procedure, except that 15-keto PGE2 was replaced with each of six prostaglandin substrates, each of three downstream metabolites, or leukotriene B4.

Mouse PGR3/ZADH2 = target: T1, Mouse PGR3/ZADH2 (Mus musculus, UniProt Q8BGC4); experiment: PGR3/ZADH2 enzyme inhibition assay (reduction of 15-keto-PGE2, NADPH consumption); format: biochemical; conditions: 50 μM compound, No Inhibitor = 100
T1 construct: GST; made in house; host or cells: E. coli
T1 sequence (Q8BGC4 1-377): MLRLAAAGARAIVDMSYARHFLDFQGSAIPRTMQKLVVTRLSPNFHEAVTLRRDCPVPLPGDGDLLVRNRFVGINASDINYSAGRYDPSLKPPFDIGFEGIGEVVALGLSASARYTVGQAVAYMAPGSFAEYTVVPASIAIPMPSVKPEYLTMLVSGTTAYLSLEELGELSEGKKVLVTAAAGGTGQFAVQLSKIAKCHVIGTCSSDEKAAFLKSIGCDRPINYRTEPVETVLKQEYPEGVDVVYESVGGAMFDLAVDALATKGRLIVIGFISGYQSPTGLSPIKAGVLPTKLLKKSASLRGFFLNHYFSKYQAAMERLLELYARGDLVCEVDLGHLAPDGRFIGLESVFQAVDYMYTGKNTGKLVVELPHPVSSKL
Experimental: as §1
(§2) Compounds 1-49 were tested for their inhibitory effects on PGR3/ZADH2 activity. These compounds are either commercially available (e.g., from Sigma-Aldrich, St. Louis, Mo.) or can be prepared from methods known in the art. The inhibition assay was performed following the procedure described above. Different concentrations of PGR3/ZADH2 inhibitors were added to the reaction mixture and incubated for 2 hours at 37° C.
(§3) More specifically, 50 μM of compounds 8, 12, 13, and 27, and 25 μM of tri-fluorobenzyl-2-hydroxycinnamate (compound 22) were added to the PGR3/ZADH2 enzyme reaction system and the ability of enzyme to reduce 15-keto-PGE2 were measured.

Human PGR3/ZADH2 = target: T2, Human PGR3/ZADH2 (Homo sapiens, UniProt Q8N4Q0); experiment: as above; format: biochemical; conditions: 50 μM compound, No Inhibitor = 100
T2 construct: GST; made in house; host or cells: E. coli
T2 sequence (Q8N4Q0 1-377): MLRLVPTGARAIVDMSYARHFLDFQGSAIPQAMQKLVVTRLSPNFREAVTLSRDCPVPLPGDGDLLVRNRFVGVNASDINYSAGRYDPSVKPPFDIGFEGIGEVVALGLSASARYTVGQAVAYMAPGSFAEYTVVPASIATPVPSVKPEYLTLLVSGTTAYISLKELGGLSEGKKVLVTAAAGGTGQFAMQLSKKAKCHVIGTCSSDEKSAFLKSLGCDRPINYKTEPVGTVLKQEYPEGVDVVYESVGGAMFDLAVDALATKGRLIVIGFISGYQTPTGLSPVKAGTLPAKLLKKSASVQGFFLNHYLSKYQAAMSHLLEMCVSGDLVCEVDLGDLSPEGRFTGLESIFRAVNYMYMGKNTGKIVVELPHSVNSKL
Experimental: as §1, §2, §3

endogenous PPAR = experiment: Reporter gene assay of endogenous PPAR activity in differentiating 3T3-L1 cells; format: cell-based; conditions: 3T3-L1 cells induced to differentiate for two days
Experimental: (§4) The effect of prostaglandin on PPAR-gamma activity in adipocytes was investigated. After treatment with a medium that induces cell differentiation, 3T3-L1 cells were treated from day 2 to 4 during adipogenesis with 14 μM 15-keto PGE2, 13,14-dihydro-15-keto PGE2, 15-keto PGF2α, 13,14-dihydro-15-keto PGF2α, or 4.5 μM of BRL49653, a PPAR-gamma agonist. See Forman et al., Cell (1995) 83:803-812. At day 6, aggregates of lipid droplets were stained with oil-red O for observation. […] After being induced to differentiate for two days, the 3T3-L1 cells were transfected with a reporter gene.

PPAR-gamma = target: T3, PPAR-gamma (Homo sapiens, UniProt P37231); experiment: GAL4-PPAR ligand-binding domain luciferase reporter in 3T3-L1 cells; format: cell-based
T3 construct: expressed in transfected cells; host or cells: 3T3-L1 cells
T3 sequence (P37231 238-503 limits assumed): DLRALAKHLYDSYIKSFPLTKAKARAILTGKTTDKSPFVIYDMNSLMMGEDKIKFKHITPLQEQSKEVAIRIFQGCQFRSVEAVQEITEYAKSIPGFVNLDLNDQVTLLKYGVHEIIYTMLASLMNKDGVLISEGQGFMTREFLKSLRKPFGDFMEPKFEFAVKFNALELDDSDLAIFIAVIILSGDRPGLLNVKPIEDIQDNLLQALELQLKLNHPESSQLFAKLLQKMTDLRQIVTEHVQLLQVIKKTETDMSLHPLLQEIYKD
Source text: A luciferase reporter gene was transfected to 3T3-L1 cells together with the ligand-binding domain of PPAR-alpha, PPAR-gamma or PPAR-delta fused to a yeast GAL4 DNA-binding domain.

PPAR-gamma target genes = experiment: Protein expression of adipogenesis-specific PPAR-gamma target genes in 3T3-L1 cells; format: cell-based
Source text: Also examined was the ability of 15-keto PGE2 to induce protein expression of adipogenesis-specific, PPAR-gamma target genes, i.e., IRS-1 and -2.

3T3-L1 cells = experiment: Adipogenesis in 3T3-L1 cells, oil-red O staining of lipid droplets; format: cell-based; conditions: 14 μM from day 2 to 4; staining at day 6
Experimental: as §4

SMILES: CCCCC[C@H](O)/C=C/[C@@H]1[C@@H](CC(=O)CCCCC(=O)O)[C@@H](O)C[C@H]1O [6-keto PGF1α]
specific activity as substrate of PGR3/ZADH2 (PGR3/ZADH2): no specific activity was detected

SMILES: CCCCCC(=O)CCC1C(=O)CC(O)C1C/C=C\CCCC(=O)O (centres unmarked) [13,14-dihydro-15-keto PGD2]
specific activity as substrate of PGR3/ZADH2 (PGR3/ZADH2): no specific activity was detected

activity at 50 µM (Mouse PGR3/ZADH2): 6.4% | activity at 50 µM (Human PGR3/ZADH2): 27.5%
SMILES: COc1cc(/C=C/C(=O)c2ccccc2O)cc(OC)c1OC [Compound 12]

SMILES: CCCCCC(=O)CC[C@@H]1[C@@H](C/C=C\CCCC(=O)O)[C@@H](O)C[C@H]1O [13,14-dihydro-15-keto PGF2α]
specific activity as substrate of PGR3/ZADH2 (PGR3/ZADH2): no specific activity was detected | endogenous PPAR activity (reporter gene) (endogenous PPAR): failed to increase PPAR activity

SMILES: CCCCCC(=O)CC[C@H]1[C@H](O)CC(=O)[C@@H]1C/C=C\CCCC(=O)O [13,14-dihydro-15-keto PGE2]
specific activity as substrate of PGR3/ZADH2 (PGR3/ZADH2): no specific activity was detected | endogenous PPAR activity (reporter gene) (endogenous PPAR): failed to increase PPAR activity

activation of PPAR-gamma (GAL4 fusion, luciferase reporter) (PPAR-gamma): activated PPAR-gamma
SMILES: CCCCCC(=O)/C=C/[C@@H]1[C@@H](C/C=C\CCCC(=O)O)[C@@H](O)C[C@H]1O [15-keto PGF2α]
specific activity as substrate of PGR3/ZADH2 (PGR3/ZADH2): reacted specifically | endogenous PPAR activity (reporter gene) (endogenous PPAR): enhanced endogenous PPAR activity significantly

activity at 50 µM (Mouse PGR3/ZADH2): 11.4% | activity at 50 µM (Human PGR3/ZADH2): 25.6%
SMILES: O=c1c(O)c(-c2ccccc2)oc2cc(O)cc(O)c12 [Compound 8]

SMILES: CCCCC[C@H](O)/C=C/[C@@H]1[C@@H](C/C=C\CCCC(=O)O)[C@H](O)C[C@H]1O [PGF2β]
specific activity as substrate of PGR3/ZADH2 (PGR3/ZADH2): no specific activity was detected

SMILES: CCCCC[C@H](O)/C=C/[C@@H]1[C@@H](C/C=C\CCCC(=O)O)[C@@H](O)C[C@@H]1O [Compound 11b-PGF2α, 11b-PGF2α]
specific activity as substrate of PGR3/ZADH2 (PGR3/ZADH2): no specific activity was detected

SMILES: CCCCCC(=O)/C=C/[C@@H]1[C@@H](CCCCCCC(=O)O)[C@@H](O)C[C@H]1O [15-keto PGF1αL, 15-keto PGF1α]
specific activity as substrate of PGR3/ZADH2 (PGR3/ZADH2): reacted specifically

SMILES: CCCCC/C=C\C[C@@H](O)/C=C/C=C/C=C\[C@@H](O)CCCC(=O)O [leukotriene B4]
specific activity as substrate of PGR3/ZADH2 (PGR3/ZADH2): no specific activity was detected

SMILES: CCCCCC(=O)/C=C/[C@H]1[C@H](O)CC(=O)[C@@H]1CCCCCCC(=O)O [15-keto PGE1]
specific activity as substrate of PGR3/ZADH2 (PGR3/ZADH2): reacted specifically

activation of PPAR-gamma (GAL4 fusion, luciferase reporter) (PPAR-gamma): activated PPAR-gamma
SMILES: CCCCCC(=O)/C=C/[C@H]1[C@H](O)CC(=O)[C@@H]1C/C=C\CCCC(=O)O [15-keto PGE2]
amount of IRS-1 protein (PPAR-gamma target genes): did not increase the amount of IRS-1 protein | PPAR-gamma1 and PPAR-gamma2 protein expression (PPAR-gamma target genes; added with MIX, insulin and dexamethasone): significantly enhanced PPAR-gammal and PPAR-gamma2 expression | expression of aP2 (PPAR-gamma target genes; even in the absence of MIX): strongly induced expression of aP2 | IRS-2 expression (PPAR-gamma target genes; in the presence of insulin and dexamethasone): enhanced the expression to a level similar to MIX | endogenous PPAR activity (reporter gene) (endogenous PPAR): enhanced endogenous PPAR activity significantly | adipogenesis (lipid droplets, oil-red O) (3T3-L1 cells): effectively enhanced adipogenesis at a level similar to BRL49653

activity at 50 µM (Mouse PGR3/ZADH2): 87.4% | activity at 50 µM (Human PGR3/ZADH2): 91.1%
SMILES: O=c1c(O)c(-c2ccc(O)c(O)c2)oc2ccccc12 [Compound 27]

SMILES: COc1cc(/C=C/C(=O)c2cc(Br)ccc2O)cc(OC)c1OC [Compound 13]
activity at 50 µM (Mouse PGR3/ZADH2): 37.1% | activity at 50 µM (Human PGR3/ZADH2): 51.1%
